# Laboratory results from a melting point compilation (Tetko et al.).
row,melting point [°C],SMILES
1,42 to 44,COC(=O)Cc1nc(-c2ccccc2)sc1C
2,120 to 150,CC(C)(C)c1ccc(C2CCC3(CC2)Cc2ccc(C(=O)n4cc(CCCC(=O)O)c5ccccc54)cc2C3)cc1 (stereo not given)
3,48,Cc1ccc(S(=O)(=O)C#N)cc1
4,85 to 90,CCOC(=O)c1cc2cccc(OC)c2o1
5,153,Nc1c(CN2CCCCCC2)c(=O)oc2ccccc12
6,109,Cc1ccccc1NN=C1C(=O)CC(C)(C)CC1=O
7,68,Nc1ccc(Br)c(F)c1
8,98 to 100,CCOc1cc(NC(=O)c2ccccc2)c(OCC)cc1N
9,83,COc1cc(C)c2c(c1)CC2=O
10,151,COc1ccc(-c2csc(/C(C#N)=N\Nc3ccc(C)cc3)n2)cc1
11,201,COc1ccc(-c2cc3nc(-c4cccs4)cc(C(F)(F)F)n3n2)cc1
12,190 to 192,O=[N+]([O-])c1cccc(-c2nnc3n2NC(/C=C/c2ccccc2)S3)c1 (stereo not given)
13,161 to 164,FC(F)(F)c1n[nH]c(=S)[nH]1
14,257,Cc1cc(O)c2c(c1)C(=O)c1cc(O)cc(O)c1C2=O
15,165 to 168,NNC(=O)c1ccc(Cl)c(Br)c1
16,112,CCOC(C)=NOc1ccc([N+](=O)[O-])cc1[N+](=O)[O-]
17,55.5 to 59.5,O=C(Oc1c(F)c(F)c(F)c(F)c1F)c1sccc1C1OCCO1
18,320,O=[N+]([O-])c1ccc(-c2nnc3n2CN(c2ccc([N+](=O)[O-])cc2)CS3)cc1
19,234,O=C(Nc1cccc([N+](=O)[O-])c1)Nc1cccc([N+](=O)[O-])c1
20,187,CC(=O)n1c2ccccc2c2cc3ccccc3nc21
21,10,Cc1ccccc1S(=O)(=O)Cl
22,36,CC(=O)c1cccc(-c2ccccc2)c1
23,93,Clc1cc(Br)cc(Br)c1

row,melting point [°C],SMILES
1,127,Cc1cc2c(o1)-c1c(oc3ccc(Br)cc13)CCC2(C)c1ccccc1 (stereo not given)
2,116 to 118,N#CCc1nc(-c2ccc3c(c2)OCCO3)cs1
3,170 to 172,NS(=O)(=O)c1cc(Cl)cc(Cl)c1
4,190,O=C1C(=Cc2ccccc2)SC(=S)N1CNc1cccc([N+](=O)[O-])c1
5,35,CCOc1cccc(-c2ccccc2)c1
6,167,Clc1ccc(Cn2c(CN3CCCC3)nc3ccccc32)cc1
7,58,c1ccc(SSc2ccccn2)nc1
8,260 to 263,Cc1csc(-c2cn(C(C)C)c(=O)n(CC(=O)NN)c2=O)n1
9,59 to 63,COc1cccc(CO)c1O
10,153 to 155,CCOC(=O)c1c(C)oc(NC(=O)Nc2cccc(C(F)(F)F)c2)c1C(=O)OCC
11,160 to 167,OC12Cc3ccccc3C(O)(Cc3ccccc31)O2
12,173 to 176,Cc1ccc(-c2cc(N)n(-c3ccccc3)n2)cc1
13,92 to 93,C=CCn1c2c(c3cc(OC)ccc31)CCc1cc(OC)ccc1-2
14,< 20,Brc1cccc(Br)c1Oc1ccccc1
15,74,Nc1ccccc1CCCCc1ccccc1N
16,167,CCOC(=O)c1cc2cc3cc(C(=O)OCC)c(C)nc3cc2nc1C
17,31,FC(F)(F)c1cc2ccccc2cn1
18,62 to 64,CC(=O)c1ccc2c(c1)CCO2
19,152 to 154,OCc1ccc(-c2ccsc2)cc1
20,183 to 185,COc1cc(CC(=O)O)cc(Br)c1O
21,221,CCc1nnc(/N=N/c2c(-c3ccccc3)n(C)c3ccccc23)s1
22,187,O=C(O)c1cccc2cccnc12
23,164,Nc1c(OC2C=CC(N3CCCCCC3=O)=CC2)cc(O)c2c1C(=O)c1ccccc1C2=O (stereo not given)

row,melting point [°C],SMILES
1,138,O=C1c2ccccc2C(=O)C1c1ccc(Br)cc1
2,100,FC(F)(F)c1cc(P(c2cc(C(F)(F)F)cc(C(F)(F)F)c2)c2cc(C(F)(F)F)cc(C(F)(F)F)c2)cc(C(F)(F)F)c1
3,55 to 58,CC(=O)c1c(-c2ccccc2)noc1C
4,185 to 188,O=C(O)c1[nH]c2ccccc2c1Br
5,91.5,Cc1ccccc1-c1ccccc1P(C(C)(C)C)C(C)(C)C
6,35,Cc1ccc2c(c1)CCCN2
7,107,O=[N+]([O-])c1cc(C2CCCCC2)c(O)c([N+](=O)[O-])c1
8,115,Cc1nc(-c2ccc(C=O)cc2)no1
9,143,CCOC(=O)C1=C(C)Nc2ccccc2S1
10,222 to 226,Nc1ncc(S(=O)(=O)c2ccc([N+](=O)[O-])cc2)s1
11,65,CC(=O)NCc1ccccc1C(c1ccc(C)o1)c1ccc(C)o1
12,154 to 155,COc1cccc2cc(C(=O)c3cc4ccccc4o3)oc12
13,167,Cc1cc(C(=O)O)ccc1F
14,129 to 131,NC(=S)c1ccc(F)c(Cl)c1
15,148,O=C(C=CN(O)c1ccccc1)c1ccc2c(c1)CCCC2
16,181,Cc1cccnc1NC(=O)C(C(F)(F)F)C(F)(F)F
17,115,Clc1c(Cl)c(Cl)c2c(c1Cl)OC(c1ccccc1)O2
18,177,N#CC1C(=O)CC(=O)CC1c1ccccc1 (stereo not given)
19,57.5,N#CCc1cccc(C(F)(F)F)c1Cl
20,102,O=C1COc2ccccc21
21,> 300,Cc1cccc2c1[nH]c(=O)c1cc(NC(=O)c3ccccc3)c(=O)oc12
22,138,Cc1c(C)c(C)c(C(=O)c2ccccc2)c(C)c1C
23,98 to 100,O=Cc1cccc(-c2ncccn2)c1

# The next lines start with the compound.
row,SMILES,melting point [°C]
1,O=C1CSC(c2cccs2)C1 (stereo not given),55 to 58
2,NC(=S)c1ccc(C2SCCS2)cc1,174
3,CCOC(=O)[C@H](CCc1ccccc1)N[C@@H](C)C(=O)O,148 to 153
4,CCCCS(=O)(=O)NC(Cc1ccc(OCCCCC2CCNCC2)cc1)C(=O)O (stereo not given),223
5,CN(C)C1CSSC1,177
6,C1=CCCCCCCCCCC1,-9
7,CNC(=O)ON=CC(C)(C)SC,99
8,CNC(=S)NCO,88
9,CCCOC1CCC2C3CCC4=CC(=O)CCC4(C)C3CCC12C (stereo not given),117 to 119
10,Cc1cc(Cl)c(Cl)cc1Cl,82.4
11,OC1CC2CCC1C2 (stereo not given),149
12,CC(=O)OCCOCCOCCOC(C)=O,-50
13,CCN(CC)c1nc2ccccc2c(=O)n1-c1ccccc1,109
14,O=S(=O)(c1ccccc1)N1CCNCC1,111 to 112
15,CC1CC2=CC(=O)CCC2(C)C2CCC3(C)C(CCC3(C)O)C12 (stereo not given),164
16,O=[N+]([O-])c1nc[nH]n1,212 to 214
17,O=CC(=O)O,98
18,C=C[Si](OC(C)=O)(OC(C)=O)OC(C)=O,7
19,"O=C1NC2C=CC1C2 (single isomer, unassigned; (-))",92 to 100
20,Clc1ccccc1-c1nnc(-c2ccccc2Cl)nn1,183
21,NC(CCC(=O)NC(CS)C(=O)NCC(=O)O)C(=O)O (stereo not given),195

row,SMILES,melting point [°C]
1,CSC(=NC#N)Nc1ccccc1,185 to 186
2,COC(=O)c1c(C)[nH]c(C)c1C=O,160
3,C1CC2CCCC(C1)C2,146
4,CCOC(=O)C1(c2cccc(O)c2)CCN(C)CC1,110
5,CCCCCCC(=O)OCCCC,-67.5
6,C=C1C(=O)C23C4CC5C(C)(C)CCC(OC(C)=O)C5(C)C2C(OC(C)=O)CC1(OC(C)=O)C3OC(C)(C)O4 (stereo not given),221
7,CCCCCCCCCCCCOC(C)=O,1.3
8,C[C@]12CC[C@H]3[C@@H](CC=C4C[C@@H](O)CC[C@@]43C)[C@@H]1CC[C@@H]2O,178 to 182
9,N#CC1CCCCC1,11
10,O=C1NC(=S)NC(=O)C1=NNc1ccccc1,290
11,CC(=O)OC(OC(C)=O)c1ccccc1,46
12,CC(C)OC(=O)c1cc(-c2nn(C)c(C(F)(F)F)c2Br)c(F)cc1Cl,80
13,CNC(=N[N+](=O)[O-])NCc1cnc(Cl)s1,177
14,CCCCCCCCCCCCCCCCC#N,34
15,Cc1cccc([N+](=O)[O-])c1C,15
16,CCSc1nnc(C(C)(C)C)c(=O)n1N,95
17,NNc1nc(N)nc(C23CC4CC(CC(C4)C2)C3)n1,265 to 267
18,NC(=O)CCC(N)=O,260 to 265
19,Cc1ccc(Cl)nn1,57
20,CC1(C)OC(C)(C(O)C2CCCCC2)CCC1C(=O)O (stereo not given),181
21,CNC(=O)c1cccnc1,104

row,SMILES,melting point [°C]
1,CCCCOC(=O)C(C)O (stereo not given),-28
2,COCCOC(=O)c1ccccc1C(=O)OCCOC,-45
3,COC1=CC(=O)OC1,60 to 65
4,COC(=O)[C@@H](NC(=O)OCc1ccccc1)[C@@H](C)O,92 to 94
5,Sc1ccncc1,182 to 189
6,CCC(OC(N)=O)C1CCCCC1 (stereo not given),128
7,CCOC(=O)c1ccccc1N=C=O,29
8,CC(=O)N=c1sc(S(N)(=O)=O)nn1C,214
9,NC[C@H]1CC[C@H](C(=O)O)CC1,300
10,COC(=O)c1ccc(Br)o1,64
11,NCCOCCO,-11
12,NC(COc1ccccc1)=NO,93 to 94
13,CC1(C)C(=O)N(Br)C(=O)N1Br,187 to 191
14,BrCC(CBr)CBr,-32
15,N[C@H](CCCCP(=O)(O)O)C(=O)O,215 to 220
16,CCC(CC)C(=O)O,-14
17,"CC12CCC(=O)CC1(O)CCC2=O (single isomer, unassigned; (+))",110 to 118
18,COC(=O)CCC(C)C1CCC2C3C(OC(C)=O)CC4CC(OC(C)=O)CCC4(C)C3CC(=O)C12C (stereo not given),178
19,COc1ccccc1OC,22.5
